Test results from publication PMC4671274 (Molecular microbiology, 2015).

Biological target: Rv0888 (SpmT) (Mycobacterium tuberculosis, UniProt P9WKQ1)
Sequence (P9WKQ1 32-490 limits assumed): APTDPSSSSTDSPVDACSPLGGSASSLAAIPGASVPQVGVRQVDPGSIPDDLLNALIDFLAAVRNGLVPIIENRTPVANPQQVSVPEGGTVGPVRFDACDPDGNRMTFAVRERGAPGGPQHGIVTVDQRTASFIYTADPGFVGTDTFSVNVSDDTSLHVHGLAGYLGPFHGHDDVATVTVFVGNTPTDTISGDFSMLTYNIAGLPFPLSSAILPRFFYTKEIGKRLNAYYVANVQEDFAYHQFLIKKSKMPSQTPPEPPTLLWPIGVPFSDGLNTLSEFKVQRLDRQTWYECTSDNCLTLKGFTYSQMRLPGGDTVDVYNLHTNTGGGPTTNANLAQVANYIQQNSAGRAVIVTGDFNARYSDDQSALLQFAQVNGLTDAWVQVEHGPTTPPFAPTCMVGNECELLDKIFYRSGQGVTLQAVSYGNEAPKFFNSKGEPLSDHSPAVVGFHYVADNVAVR

**Q.** sphingomyelin was tested. Which Km did it give?
**A.** 671 µM
